*1 amine or outer side, *2 acyl side, *3 side chain or, on linkers, in order; H or OH if unused. Where a SMILES comes first, the peptide text is derived from it. Bridges are numbered along the chain shown (N, C = ends). Roman numbers before positions name the chains, in order. [ ]: non-standard residue; d: D form. Actinocin(9to1) = Cc1c2oc3c(C)ccc(C(=O)[*:1])c3nc-2c(C(=O)[*:2])c(N)c1=O; NMeV = CN[C@H](C(=O)O)C(C)C; Sar = CNCC(=O)O
System: CD83 expression on the cell membrane of monocytes
Assay: CD83 surface expression on monocytes cultured with metabolic inhibitors
Assay type: cell-based, human
Conditions: 4 h monocyte culture, inhibitor added at beginning; actinomycin D 100 ng/ml, cyclohexamide 100 μM, brefeldin A 5 μg/ml
Protocol: The dotted line indicates the FACS profile of cells stained with isotype control mAb. The data are representative of three independent experiments.
Cells were washed and resuspended in PBS containing 1% human serum and incubated with fluorochrome-conjugated mAbs for 30 min at 4° C. The following mAbs were used for immunofluorescent staining: anti-CD14, CD80, CD4, CD25, CD54, HLA-DR (Becton Dickinson, San Jose Calif.), CD40, CD86, CD83, CD1a, CD62L, HLA A-B-C, ManR, CD58, LFA-1, CD32 (Pharmingen, San Diego, Calif.), CD2 (clone SFCI3Pt2H9; Beckman Coulter, Fullerton, Calif.), CD33 (Immunotech). Samples were collected and analysed by using a FACSort (Becton Dickinson) and data analysis was performed by CellQuest software (Becton Dickinson). Cells were electronically gated according to light scatter properties, in order to exclude cell debris and contaminating lymphocytes.
The CD83 surface expression in cells cultured in the presence of various metabolic inhibitors added at the beginning of the culture was examined.

Cc1c2oc3c(C)ccc(C(=O)N[C@@H]4C(=O)N[C@H](C(C)C)C(=O)N5CCC[C@H]5C(=O)N(C)CC(=O)N(C)[C@@H](C(C)C)C(=O)O[C@@H]4C)c3nc-2c(C(=O)N[C@@H]2C(=O)N[C@H](C(C)C)C(=O)N3CCC[C@H]3C(=O)N(C)CC(=O)N(C)[C@@H](C(C)C)C(=O)O[C@@H]2C)c(N)c1=O [actinomycin D] (I: T[dV]P[Sar][NMeV] / II: T[dV]P[Sar][NMeV]; ester I:1-I:C, II:1-II:C; linker I:N-II:N via Actinocin(9to1))
inhibition of up-regulation of CD83 expression on the cell membrane: not significantly inhibited

C[C@H]1CCC/C=C/[C@@H]2C[C@H](O)C[C@H]2[C@H](O)/C=C/C(=O)O1 [brefeldin A]
inhibition of up-regulation of CD83 expression on the cell membrane: completely blocked

C[C@@H]1C[C@@H]([C@H](O)CC2CC(=O)NC(=O)C2)C(=O)[C@@H](C)C1 [cyclohexamide]
inhibition of up-regulation of CD83 expression on the cell membrane: completely blocked

Reference: US20060073589A1, “Rapid generation of activated mononuclear antigen presenting cells from monocytes” (priority 2002, published 2006)
